The record followed here is ChEMBL document CHEMBL2086361, “Synthesis and biological activity of pyridopyridazin-6-one p38α MAP kinase inhibitors. Part 2” (Bioorg Med Chem Lett, 2012).

A short description of series [1]: in vivo. The settings on record: rat.
A short description of series [2]: in vivo. The settings on record: dog.
A short description of series [3]: in vivo. The settings on record: rhesus monkey.
A short description of series [4]: in vivo. The settings on record: rat, iv, 1 mg/kg.
Series [5] is described as follows: in vivo. The settings on record: dog, iv, 0.25 mg/kg.
A short description of series [6]: in vivo. The settings on record: rhesus monkey, iv, 1 mg/kg.
Series [7] is described as follows: in vivo. The settings on record: rat, plasma.
Series [8] is described as follows: in vivo. The settings on record: dog, plasma.
The nature of series [9]: in vivo. The settings on record: rhesus monkey, plasma.
A short description of series [10]: in vivo. The settings on record: rat, po, 2 mg/kg.
Series [11] in a line: in vivo. The settings on record: dog, po, 2 mg/kg.
A short description of series [12]: in vivo. The settings on record: rhesus monkey, po, 2 mg/kg.

The term half-life denotes the time in which the quantity being followed falls by half. One may read the clearance as a measure of how efficiently the substance is removed, as volume per time. For orientation: AUC means concentration integrated over time. As a reminder, the bioavailability is the share of a dose that reaches the circulation, judged against a reference dose that is usually intravenous. Turning to `Cc1nnc(-c2ccc(F)c(-c3c(=O)ccn4nc(Oc5ccc(F)cc5F)ccc34)c2)o1`, the half-life in series [1] is 4.4 h; in series [2], 4.5 h; in [3] it was 6.9 h. Besides, the clearance is 2 mL/min/kg in series [4], 2.8 mL/min/kg in series [5] and 2 mL/min/kg in series [6]. Besides, the AUC in [7] came to 20 µM·h; in [8], 2.1 µM·h; in [9] it was 5.6 µM·h. The bioavailability in series [10] came out at 93%; in [11], 15%; in series [12], 31%.
